Results on twelve compounds are retold here after ChEMBL document CHEMBL1201862, “PubChem BioAssay data set” (2004).

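Values below derive from 48-hour exposures of cells grown in 96-well plates, with endpoints linearly interpolated between the two concentrations bracketing the appropriate inhibition level. GI50 is the concentration that inhibits growth by half.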 Activity calls are given as the source filed them. Cut-off read from the data, not from the text of the source: active = GI50 up to about 1.1 µM and inactive = higher. Where only a bound is given, the exact number is not on record here.

Common to all, as to assay: NCI anticancer screen, dose series, 48 h
In experiment [1] the test system is 786-0.
Experiment [2] deals with ACHN.
The test system of experiment [3] is DMS-273.
In experiment [4] the test system is EKVX.
In experiment [5] the test system is HCT-15.
Experiment [6] has as its system HOP-62.
Experiment [7] relates to K562.
The subject of experiment [8] is Malme-3M.
Experiment [9] relates to NCI-H23.
In experiment [10] the test system is SK-MEL-28.
In experiment [11] the test system is SK-MEL-2.
The subject of experiment [12] is SN12C.
Experiment [13] concerns SNB-75.
The subject of experiment [14] is SR.
Experiment [15] relates to TK-10.
Experiment [16] has as its system U-251.
The test system of experiment [17] is HCC 2998.
Experiment [18] deals with MOLT-4.

As for `COCOCc1cc(OCc2ccccc2)c(OC)cc1Br`, the GI50 in [1] was > 100 µM (inactive); in experiment [2], 82.6 µM (inactive); in experiment [3], 64.6 µM (inactive); in experiment [4], > 100 µM (inactive); in experiment [5] it was 40.9 µM; in experiment [6] it was > 100 µM (inactive). Besides, the GI50 in [7] was 63.8 µM (inactive); in [8], > 100 µM (inactive); in [9], > 100 µM (inactive); in [10], > 100 µM (inactive); in [11], > 100 µM (inactive); in [12], > 100 µM (inactive). The GI50 in experiment [13] was > 100 µM (inactive); in [14] it was 63.1 µM (inactive); in [15], > 100 µM (inactive); in experiment [16] it was > 100 µM (inactive).
For the compound `O=c1[nH]c2c(c3ccccc13)CCc1ccccc1-2`, the GI50 in experiment [1] is > 100 µM (inactive); in experiment [2] it was > 100 µM (inactive); in experiment [3], > 100 µM (inactive); in experiment [4], > 100 µM (inactive); in [17] it was > 100 µM (inactive); in [5] it was over 100 µM. Also, the GI50 in experiment [7], in experiment [18], in experiment [8], in [9], in [10] and in experiment [11] was > 100 µM (inactive) throughout. The GI50 in experiment [12], in experiment [13], in experiment [14], in experiment [15] and in experiment [16] was > 100 µM (inactive) throughout.
In the case of `O=C(NCC#CCO)C(F)(F)F`, the GI50 in experiment [1] is > 100 µM (inactive); in experiment [2], > 100 µM (inactive); in experiment [3], > 100 µM (inactive); in experiment [4] it was > 100 µM (inactive); in [17], > 100 µM (inactive); in experiment [5], over 100 µM. The GI50 in experiment [6], in experiment [18], in [8], in [9], in experiment [10] and in [11] was > 100 µM (inactive) each time. In addition, the GI50 in [12], in experiment [14], in experiment [15] and in experiment [16] was > 100 µM (inactive) in each case.
For `Cc1nc2c(N)ncnc2o1`, the GI50 in [1] was > 100 µM (inactive); in experiment [2], > 100 µM (inactive); in [3] it was > 100 µM (inactive); in experiment [4] it was > 100 µM (inactive); in experiment [17] it was > 100 µM (inactive); in [5], over 100 µM. Further, the GI50 in [6], in [7], in [18], in [8], in experiment [9] and in [10] was > 100 µM (inactive) throughout. The GI50 in experiment [11], in experiment [12], in experiment [13], in experiment [15] and in [16] was > 100 µM (inactive) throughout.
For the compound `O=[N+]([O-])C(=C(c1ccccc1)c1ccccc1)[N+](=O)[O-]`, the GI50 in [1] is 14.5 µM (inactive); in experiment [2], 12.8 µM (inactive); in experiment [3] it was 4.53 µM (inactive); in experiment [4], > 10 µM (inactive); in [17], 11.4 µM (inactive); in experiment [5] it was 13.8 µM. Moreover, the GI50 in experiment [6] is > 10 µM (inactive); in experiment [7], 20.5 µM (inactive); in [18] it was 3.32 µM (inactive); in experiment [9], 17.4 µM (inactive); in [10], 7.98 µM (inactive); in experiment [11], 2.43 µM (inactive). Besides, the GI50 in [12] was 15.5 µM (inactive); in experiment [13] it was 10.2 µM (inactive); in experiment [14], 3.29 µM (inactive); in experiment [15] it was 18.6 µM (inactive); in experiment [16] it was 13.6 µM (inactive).
As for `C=CCN1CCC23c4c5ccc(O)c4OC2C(=NN=C2CCC4(O)C6Cc7ccc(O)c8c7C4(CCN6CC=C)C2O8)CCC3(O)C1C5` (stereo unspecified), the GI50 was 18.3 µM (inactive) in [1]; 20.2 µM (inactive) in experiment [2]; 19.1 µM (inactive) in experiment [3]; 28.5 µM (inactive) in [4]; 21.3 µM (inactive) in experiment [17]; 35.5 µM in experiment [5]. Also, the GI50 in experiment [6] is 21.4 µM (inactive); in experiment [7], 26.2 µM (inactive); in experiment [18], 38.3 µM (inactive); in [8], 19.1 µM (inactive); in experiment [9] it was > 100 µM (inactive); in experiment [10] it was 17.3 µM (inactive). Besides, the GI50 was 18 µM (inactive) in [11]; 23 µM (inactive) in experiment [12]; 17.1 µM (inactive) in [13]; 21.6 µM (inactive) in experiment [15]; 18.9 µM (inactive) in [16].
As to `CC(C)(C)C(=O)Nc1ccccc1Br`, the GI50 is > 100 µM (inactive) in [1]; > 100 µM (inactive) in experiment [2]; > 100 µM (inactive) in [3]; > 100 µM (inactive) in experiment [4]; > 100 µM (inactive) in experiment [17]; over 100 µM in experiment [5]. For the same compound, the GI50 in experiment [6], in experiment [7], in [18], in experiment [8], in experiment [10] and in experiment [11] was > 100 µM (inactive) in each case. Also, the GI50 in experiment [12], in experiment [13], in [15] and in experiment [16] was > 100 µM (inactive) throughout.
In the case of `CCOC(=O)CCn1cnc(N)n1`, the GI50 in [1] is > 100 µM (inactive); in experiment [2], > 100 µM (inactive); in [3] it was > 100 µM (inactive); in experiment [4] it was > 100 µM (inactive); in experiment [17] it was > 100 µM (inactive); in experiment [5], over 100 µM. In addition, the GI50 in experiment [6], in experiment [7], in experiment [18], in [8], in experiment [9] and in experiment [10] was > 100 µM (inactive) throughout. Further, the GI50 in [11], in experiment [12], in experiment [13], in [14], in experiment [15] and in experiment [16] was > 100 µM (inactive) in each case.
As for `CC(C)C1COC(c2ccc3ccccc3c2-c2c(O[Si](C)(C)C(C)(C)C)ccc3ccccc23)=N1` (stereo unspecified), the GI50 in experiment [1] is 18.4 µM (inactive); in experiment [2] it was 18.9 µM (inactive); in experiment [3], 21.4 µM (inactive); in experiment [4], 19.1 µM (inactive); in experiment [17] it was 15.1 µM (inactive); in experiment [5], 22.3 µM. The GI50 was 18.8 µM (inactive) in [6]; 16.6 µM (inactive) in experiment [7]; 15.6 µM (inactive) in experiment [18]; 18.4 µM (inactive) in [8]; 16.3 µM (inactive) in [9]; 19.1 µM (inactive) in experiment [10]. The GI50 is 16.1 µM (inactive) in [11], 16.6 µM (inactive) in experiment [12], 17.9 µM (inactive) in [13] and 17.9 µM (inactive) in [15].
Consider `CCCCN(CCCC)CCCn1cnc2ncccc2c1=O`, for which the GI50 in experiment [1], in experiment [2], in experiment [3], in experiment [4], in [17] and in experiment [6] was > 100 µM (inactive) in each case. The GI50 in experiment [7], in experiment [18], in experiment [8], in [9], in experiment [10] and in experiment [11] was > 100 µM (inactive) in each case. In addition, the GI50 in experiment [12], in experiment [13], in experiment [14], in experiment [15] and in experiment [16] was > 100 µM (inactive) in each case.
Turning to `COc1ccc(C(=O)C(C(=O)CCC(=O)Nc2ccc(Cl)c(Cl)c2)c2ccc(OC)cc2)cc1` (stereo unspecified), the GI50 was > 100 µM (inactive) in [1]; > 100 µM (inactive) in experiment [2]; > 100 µM (inactive) in experiment [3]; > 100 µM (inactive) in experiment [4]; > 100 µM (inactive) in [17]; over 100 µM in experiment [5]. Also, the GI50 in experiment [6], in experiment [7], in experiment [18], in experiment [8], in [9] and in experiment [10] was > 100 µM (inactive) in each case. The GI50 is > 100 µM (inactive) in [11]; > 100 µM (inactive) in experiment [12]; 44.9 µM (inactive) in experiment [13]; > 100 µM (inactive) in experiment [15]; > 100 µM (inactive) in experiment [16].
For `CCC(C)CCOC(=O)c1ccc(/N=C\c2ccc(/C=N/c3ccc(C(=O)OCCC(C)CC)cc3)cc2)cc1` (stereo unspecified), the GI50 in [1] was > 100 µM (inactive); in [2], > 100 µM (inactive); in experiment [3], > 100 µM (inactive); in experiment [4], 62.2 µM (inactive); in [17], > 100 µM (inactive); in experiment [5] it was over 100 µM. Besides, the GI50 in experiment [6], in [7], in [18], in [8], in experiment [9] and in experiment [10] was > 100 µM (inactive) in each case. The GI50 in experiment [11], in experiment [12], in [13], in [14] and in [16] was > 100 µM (inactive) throughout.
